Where a SMILES comes first, the peptide text is derived from it.
What was measured:
[1] = tested on: fever; details: relative to parent peptide or α-MSH(11-13); cited from earlier work
[2] = tested on: psoriatic lesions; assay: Topical treatment of psoriatic lesions in a subject, KPV in mineral oil vs contralateral Hydrocortisone; details: for Adverse reactions or side effects: treatment continued for eleven days
Source text: In a subject with a diagnosed and confirmed greater than ten year history of dermatologically symptomatic psoriasis, KPV was used to treat inflammation, scaling, dryness, pain, erythema, and pruritis. The subject had psoriatic lesions located bilaterally on the volar (palm side) surface of the forearms. The lesions varied in time of existence for greater than ten years with variagated presentation. The subject presented no opportunistic infection of the integument secondary to the psoriatic lesions.
KPV in a crystalline form was prepared as disclosed in U.S. Pat. No. 5,028,592. Mineral oil was chosen as a carrier for the KPV preparation. One milligram of KPV was administered topically on the affected areas of the integument at a frequency of twice daily. For comparison purposes, a standard dosage amount of Hydrocortisone was placed on the contralateral area of the body of the subject that also manifested the dermatological sequelae of psoriasis. Topical administration was accomplished with standard cotton tipped applicators.
This treatment was continued for eleven days.

[3] = tested on: inflammation; details: relative to L-form tripeptide α-MSH (11-13); cited from earlier work

8-13 sequence: α-MSH 8-13 fragment (RWGKPV; Designed polypeptide with anti-inflammatory, anti-bacterial, anti-fungal and antipyretic properties.)
Antipyretic potency [1]: greater than that of the 11-13 sequence

9-13 sequence: α-MSH 9-13 fragment (WGPKV; Designed polypeptide with anti-inflammatory, anti-bacterial, anti-fungal and antipyretic properties.)
Antipyretic potency [1]: almost devoid of activity

10-13 sequence: α-MSH(11-13) with glycine added to form the 10-13 sequence (GKPV; Designed polypeptide with anti-inflammatory, anti-bacterial, anti-fungal and antipyretic properties.)
Antipyretic potency [1]: slightly decreased potency

C[C@]12CCC(=O)C=C1CC[C@@H]1[C@@H]2[C@@H](O)C[C@@]2(C)[C@H]1CC[C@]2(O)C(=O)CO [Hydrocortisone]
Improvement of symptoms associated with the psoriatic lesions ([2]; KPV one milligram twice daily in mineral oil, Hydrocortisone standard dosage on contralateral side): showed improvement | Period of symptom control / relief from symptoms ([2]; psoriatic lesions on forearms): three hours | Adverse reactions or side effects [2]: telangictasia and atrophy of skin

CC(C)[C@H](NC(=O)[C@@H]1CCCN1C(=O)[C@@H](N)CCCCN)C(=O)O [KPV, lysine-proline-valine] (H-Lys-Pro-Val-OH)
Adverse reactions or side effects [2]: No adverse reactions or side effects

Ac-[D-K11]-α-MSH 11-13-NH2
Anti-inflammatory activity / general potency [3]: same general potency as the L-form

[Nle^4,D-Phe^7]-α-MSH
Antipyretic potency [1]: approximately ten times more potent than the parent peptide

α-MSH sequence (4-10): the "core" α-MSH sequence (4-10)
Antipyretic potency [1]: little antipyretic and anti-inflammatory activity | Anti-inflammatory activity / general potency [3]: little antipyretic and anti-inflammatory activity

Source: patent publication US7232804B2, “Use of KPV tripeptide for dermatological disorders” (Zengen, Inc., priority 2001, dated 2007)
